Assay results taken from article PMC3944389, “Differential Neuroprotective Effects of 5′-Deoxy-5′-Methylthioadenosine” (PLoS ONE, 2014).

Assays:
[1] = test system: Sprague-Dawley rats, pilocarpine-induced status epilepticus; assay: Pilocarpine-induced status epilepticus (SE) model; format: in vivo, rat
Procedure: Young adult (175–200 g) male Sprague-Dawley rats from Charles River (Wilmington, MA, US) were divided into four MTA treatment groups, with 9–11 rats per group. In group A, rats were subjected to pilocarpine-induced status epilepticus (SE) as described previously. Following 90 min of continuous seizure activity, SE was stopped by administering a single dose of diazepam (10 mg/kg). The rats were then injected daily for 3 days with either the vehicle alone (2% DMSO in H2O), injecting a volume of body weight x 3.3 (a similar volume as for the MTA treated groups), or MTA (30 mg/kg). Rats were euthanized on day 4 after SE under anesthesia by transcardiac perfusion with 4% paraformaldehyde (PFA) in phosphate-buffered saline. The brains were removed, postfixed in 4% PFA, cryoprotected in 30% sucrose, frozen, and sectioned for histology. In group B, the rats received the same treatment as those in group A (vehicle or MTA 30 mg/kg) except that the rats were perfused on day 30 after SE and a 0,37% sulphide fixative was used for subsequent Timm staining. In group C, the rats were only treated with MTA (30 mg/kg) or the vehicle for 2 days and on the third day, the rats were again subjected to pilocarpine-induced SE. The animals were then treated once daily with MTA (30 mg/kg) or vehicle for a further 3 days, and they were anesthetized and euthanized 4 days after SE. […]
Mouse and rat coronal sections were mounted on glass slides in a 0.2% solution of gelatin in 0.05 M Trizma base [pH 7.6] […] To evaluate sprouting of the zinc-containing mossy fibers in the dentate gyrus inner molecular layer, Timm-stained sections were analyzed by an examiner blinded to experimental condition. […] Twelve samples of pixel density/section were measured in the inner molecular layer using NIH ImageJ, 5 from the lower blade, 5 from the upper blade and 2 from the apex. The average background level (mean of 12 samples/section) was subtracted and a mean pixel density calculated for each animal (n = 4–5/group). […]

[2] = test system: Wistar rats, global brain ischemia; assay: Transient forebrain (global) ischemia (4VO), Fluoro-Jade C staining of CA1; format: in vivo, rat; conditions: 30 mg/kg i.p. from 30 min after onset of ischemia, 7 days reperfusion; untreated 180±10
Procedure: Male Wistar rats (270-300 g; Harlan) were subjected to transient focal ischemia for 90 min by producing right middle cerebral artery occlusion (MCAO) as described previously, followed by reperfusion for 3 days and MTA treatment (30 mg/kg, intraperitoneally –i.p.- twice daily) starting 30 min after the onset of ischemia (n = 5 in each experimental group). Cerebral blood flow was monitored transcranially with a laser Doppler flowmeter (Perimed) and the infarct volume was assessed by 2,3,5-triphenyltetrazolium chloride (TTC) staining. Transient forebrain ischemia was induced as described elsewhere, by occluding the vertebral and common carotid arteries (4VO) for 10 min, followed by reperfusion for 7 days and MTA treatment (as above) starting 30 min after the onset of ischemia (n = 5 in vehicle group; n = 6 in the […]). The effectiveness of the treatment was assessed by using fluoro-Jade C staining to measure the levels of degenerated neurons in the CA1 region of the hippocampal formation.
Fluoro-Jade C (Chemicon, Millipore) was used to visualize dying neurons in 10 µm frozen coronal sections pretreated for 15 min with 0.06% KMnO4. […] Cells were counted in the right and left hemispheres of each stained section, examining four sections from each experiment.

[3] = test system: rat mixed cultures of neurons and astrocytes; assay: Oxygen-glucose deprivation (OGD) with iodoacetate, LDH release; format: cell-based
Procedure: Finally, to prepare neuron-astrocyte co-cultures, neurons were resuspended in B27 Neurobasal medium plus 10% of foetal bovine serum (FBS) and then seeded onto a monolayer of astrocytes in 24-well plates at a density of 1–2×10^5 cells per well, the astrocytes having been prepared beforehand, as described elsewhere. One day later, the medium was replaced with B27-Neurobasal plus 10% FBS medium, and the cells were maintained at 37°C in 5% CO2. The cultures were used 8–9 days after plating. Neurons and astrocytes were identified with antibodies against microtubule-associated protein-2 and GFAP, respectively.
Ischemic damage was induced by incubating cell cultures for 1 h in a hyperbaric chamber in a nitrogen-saturated buffer containing: 130 mM NaCl, 5.4 mM KCl, 0.1323 mM CaCl2, 0.26 mM NaHCO3, 0.8 mM MgCl2, 1.18 mM NaH2PO4, 10 mM sucrose (OGD plus sucrose) and iodoacetate (IAA, 20 or 50 µM). IAA is a glycolytic blocker typically used in OGD experiments to simulate ischemic conditions. After the insult, the cells were incubated under normoxic conditions for an additional 24 h in the presence of glucose but in the absence of IAA. Distinct reagents were added during ischemia to evaluate their neuroprotective activity by assessing cell viability and cell death in the cultures.
The cell status was assessed by measuring the release of lactate dehydrogenase (LDH) from dead cells. LDH was measured spectrophotometrically at 490 nm on a 96-well plate reader using the Cytotox 96 Kit according to the manufacturer's instructions (Promega). The LDH release was defined by the ratio of LDH released to the total LDH present in the cell at the beginning of the treatment.

Substance: 5′-deoxy-5′-methylthioadenosine [MTA]
- mossy fiber sprouting (Timm staining) ([1]; MTA 30 mg/kg pre-SE or post-SE, 30 days after SE): No difference
- neurodegeneration and neuronal loss in hippocampal areas (NeuN immunoreactivity) ([1]; MTA 30 mg/kg/day before or after SE, early (3-5 days) and late (30 days) time points): reduced the neurodegeneration and neuronal loss
- neuronal loss in the CA3 and CA1 hippocampal areas (stereological counting of NeuN-immunoreactive cells) ([1]; MTA 30 mg/kg/day prior to SE, 30 days after SE): significant reductions
- Fluoro Jade C stained cells in the hippocampal CA1 region [2]: 110±20 cells/mm
- protection against OGD (cell death, LDH release) ([3]; IAA 20 and 50 µM, MTA 10 µM or 100 µM, APV 100 µM): significant
- protection against OGD (cell death, LDH release) ([3]; supramaximal dose of MTA, 1 mM): neither protective nor did it lead to greater damage than OGD itself
